Experimental data published in patent publication US8680275B2, “Fused heterocyclic compounds as orexin receptor modulators” (Janssen Pharmaceutica NV, priority 2009, dated 2014).

Key:
human orexin 1 receptor = human orexin 1 receptor (Homo sapiens (Human), UniProt O43613); experiment: Human orexin 1 receptor radioligand binding ([3H]-SB674042 competition); conditions: CHO cells stably expressing human orexin 1 receptor; [3H]-SB674042 4 nM final; read-out: OR-1 Ki
Protocol: (§1) The in vitro affinity of the compounds for the human orexin-1 and orexin-2 receptors was determined by competitive radioligand binding using [^3H]SB SB674042 (1-(5-(2-fluoro-phenyl)-2-methyl-thiazol-4-yl)-1-((S)-2-(5-phenyl-(1,3,4)oxadiazol-2-ylmethyl)-pyrrolidin-1-yl)methanone) (Langmead et al., British Journal of Pharmacology 2004, 141:340-346.) and [^3H]EMPA (N-ethyl-2[(6-methoxy-pyridin-3-yl)-(toluene-2-sulfonyl)-amino]-N-pyridin-3-ylmethyl acetamide) (Malherbe et al., British Journal of Pharmacology, 2009, 156(8), 1326-1341), respectively.
Human Orexin 1 Receptor Radioligand Binding Studies
Chinese ovary cells (CHO) stably expressing human orexin 1 receptor (Genebank accession number NM_001526) were grown to confluency in DMEM/F12 (Gibco, Cat #11039), 10% FBS, 1× Pen/Strep, 600 μg/mL G418 media on 150 cm^2 tissue culture plates, washed with 5 mM EDTA in PBS (HyClone Dulbecco's Phoshpate Buffered Saline 1× with Calcium and Magnesium, Cat #SH30264.01, hereafter referred to simply as PBS) and scraped into 50 ml tubes. After centrifugation (2K xG, 10 min at 4° C.), the supernatant was aspirated and the pellets frozen and stored at −80° C. Cells were resuspended in PBS in the presence of 1 tablet of protease inhibitor cocktail (Roche, Cat. #11836145001) per 50 mL. […] Compounds were solubilized in 100% DMSO (Acros Organics, Cat. #61042-1000) and tested over a range of 7 concentrations (from 0.1 nM to 10 μM). The final concentration of DMSO in the reactions is equal to or less than 0.1%. Total and nonspecific binding was determined in the absence and presence of 10 μM (1-(6,8-difluoro-2-methylquinolin-4-yl)-3-[4-(dimethylamino)phenyl]urea, CAS Registry #288150-92-5). The total volume of each reaction is 200 μL (20 μL of diluted compounds, 80 μL of [^3H]-SB674042 diluted in PBS and 100 μL of the cell suspension). Reactions were run for 60 min at room temperature and terminated by filtration through GF/C filter plates (PerkinElmer, Cat. #6005174) presoaked in 0.3% polyethylenimine using the cell harvester (PerkinElmer Filtermate). The plates were washed 3 times by aspirating 30 ml PBS through the plates. Plates were dried in 55° C. oven for 60 min, scintillation fluid was added, and the radioactivity was counted on a Topcount (Packard).

human orexin-2 receptor = human orexin-2 receptor (Homo sapiens (Human), UniProt O43614); experiment: Human orexin 2 receptor radioligand binding ([3H]-EMPA competition); conditions: HEK293 cells stably expressing human orexin-2 receptor; [3H]-EMPA 5 nM final; read-out: OR-2 Ki
Protocol: as §1
Human Orexin 2 Receptor Radioligand Binding Studies
HEK293 stably expressing human orexin-2 receptor (Genebank accession number NM_001526) were grown to confluency in DMEM/F12 (Gibco, Cat #11039), in DMEM, 10% FBS, 1× Pen/Strep, 1× NaPyruvate, 1×HEPES, 600 ug/ml G418 media on 150 cm^2 tissue culture plates, washed with 5 mM EDTA in PBS (HyClone Dulbecco's Phosphate Buffered Saline 1× with Calcium and Magnesium, Cat #SH30264.01, hereafter referred to simply as PBS) and scraped into 50 ml tubes. After centrifugation (2K xG, 10 min at 4° C.), the supernatant was aspirated and the pellets frozen and stored at −80° C. Cells were resuspended in PBS in the presence of 1 tablet of protease inhibitor cocktail (Roche, Cat. #11836145001) per 50 mL. […] Competition binding experiments in 96 well polypropylene plates were performed using [^3H]-EMPA (Moravek Corporation, specific activity=27 Ci/mmol), diluted to a […] concentration in PBS (5 nM final concentration). Compounds were solubilized in 100% DMSO (Acros Organics, Cat. #61042-1000) and tested over a range of 7 concentrations (from 0.1 nM to 10 μM). The final concentration of DMSO in the reactions is equal to or less than 0.1%. Total and nonspecific binding was determined in the absence and presence of 10 μM (N-[2-(3,4-dimethoxyphenyl)ethyl]-N-methylnaphthalene-1-carboxamide, CAS Registry #1089563-88-1). The total volume of each reaction is 200 μL (20 μL of diluted compounds, 80 μL of [^3H]-EMPA diluted in PBS and 100 μL of the cell suspension). Reactions were run for 60 min at room temperature and terminated by filtration through GF/C filter plates (PerkinElmer, Cat. #6005174) presoaked in 0.3% polyethylenimine using the cell harvester (Perkin Elmer Filtermate). The plates were washed 3 times by aspirating 30 ml PBS through the plates. Plates were dried in 55° C. oven for 60 min, scintillation fluid was added, and the radioactivity was counted on a Topcount (Packard).

Sequence of human orexin-2 receptor (O43614 whole entry): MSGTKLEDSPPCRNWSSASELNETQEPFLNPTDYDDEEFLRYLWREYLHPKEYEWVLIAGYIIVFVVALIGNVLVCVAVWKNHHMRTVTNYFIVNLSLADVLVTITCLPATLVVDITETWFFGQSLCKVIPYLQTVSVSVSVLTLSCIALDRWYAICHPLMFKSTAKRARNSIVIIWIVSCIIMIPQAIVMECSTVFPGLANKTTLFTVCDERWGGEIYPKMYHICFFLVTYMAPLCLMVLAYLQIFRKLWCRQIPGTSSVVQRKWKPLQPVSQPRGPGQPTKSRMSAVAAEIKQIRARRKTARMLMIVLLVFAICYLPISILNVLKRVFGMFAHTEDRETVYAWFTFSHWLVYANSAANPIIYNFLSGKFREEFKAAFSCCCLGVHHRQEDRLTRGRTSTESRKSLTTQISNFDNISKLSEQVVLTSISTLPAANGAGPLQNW
Sequence of human orexin 1 receptor (O43613 whole entry): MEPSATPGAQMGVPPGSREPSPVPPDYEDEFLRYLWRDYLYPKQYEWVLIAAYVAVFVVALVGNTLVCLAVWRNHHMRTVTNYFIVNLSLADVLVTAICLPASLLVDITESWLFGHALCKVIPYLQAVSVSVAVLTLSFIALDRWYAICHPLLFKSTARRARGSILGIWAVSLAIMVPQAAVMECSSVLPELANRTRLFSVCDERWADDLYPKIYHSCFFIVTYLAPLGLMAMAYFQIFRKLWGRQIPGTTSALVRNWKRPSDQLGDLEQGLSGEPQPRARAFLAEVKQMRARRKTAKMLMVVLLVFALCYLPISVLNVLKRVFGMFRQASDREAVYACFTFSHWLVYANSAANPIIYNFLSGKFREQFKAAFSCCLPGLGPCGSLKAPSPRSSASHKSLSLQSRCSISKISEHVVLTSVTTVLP

`Cc1cc(C)nc(N2C[C@@H]3CCN(C(=O)c4cc(F)ccc4Br)C[C@@H]32)n1` [Example 164, (1R,6S)-3-[(2-Bromo-5-fluorophenyl)carbonyl]-8-(4,6-dimethylpyrimidin-2-yl)-3,8-diazabicyclo[4.2.0]octane] gave a Ki (human orexin 1 receptor) of 3900 nM and a Ki (human orexin-2 receptor) of 190 nM.
`Cc1cc(C)nc(N2C[C@@H]3CCN(C(=O)c4ccccc4-c4ccccc4)C[C@@H]32)n1` [Example 3, (1R,6S)-Biphenyl-2-yl-[8-(4,6-dimethyl-pyrimidin-2-yl)-3,8-diaza-bicyclo[4.2.0]oct-3-yl]-methanone] was tested, and the Ki (human orexin 1 receptor) was 169 nM and the Ki (human orexin-2 receptor) was 8 nM.
`Cc1cnc(C)c(N2C[C@@H]3CCN(C(=O)c4cc(F)ccc4-n4nccn4)C[C@@H]32)n1` [Example 97, (1R,6S)-8-(3,6-Dimethylpyrazin-2-yl)-3-{[5-fluoro-2-(2H-1,2,3-triazol-2-yl)phenyl]carbonyl}-3,8-diazabicyclo[4.2.0]octane] was tested, and the Ki (human orexin 1 receptor) was 5020 nM and the Ki (human orexin-2 receptor) was 1290 nM.
`O=C(c1cc(F)ccc1-n1nccn1)N1CC[C@H]2CN(c3cnnc(Cl)c3)[C@H]2C1` [Example 87, (1R,6S)-8-(6-Chloropyridazin-4-yl)-3-{[5-fluoro-2-(2H-1,2,3-triazol-2-yl)phenyl]carbonyl}-3,8-diazabicyclo[4.2.0]octane] was tested, and the Ki (human orexin 1 receptor) was at least 10000 nM and the Ki (human orexin-2 receptor) was 1400 nM.
Work on `Cc1cc(C)nc(N2CC3CN(C(=O)c4ccccc4Br)CC32)n1` (stereo not drawn) [Example 58, 3-[(2-Bromophenyl)carbonyl]-6-(4,6-dimethylpyrimidin-2-yl)-3,6-diazabicyclo[3.2.0]heptane] yielded a Ki (human orexin 1 receptor) of 9650 nM and a Ki (human orexin-2 receptor) of 1050 nM.
`Cc1ccc(C)c(S(=O)(=O)N2CCC3CN(c4cnc5ccccc5n4)C3C2)c1` (stereo not drawn) [Example 21, 2-[3-(2,5-Dimethyl-benzenesulfonyl)-3,8-diaza-bicyclo[4.2.0]oct-8-yl]-quinoxaline] showed a Ki (human orexin 1 receptor) of 1210 nM and a Ki (human orexin-2 receptor) of 3780 nM.
Compound `Cc1cc(C)nc(N2C[C@@H]3CCN(C(=O)c4ccc(C)nc4-n4ccnn4)C[C@@H]32)n1` [Example 88, (1R,6S)-8-(4,6-Dimethylpyrimidin-2-yl)-3-{[6-methyl-2-(1H-1,2,3-triazol-1-yl)pyridin-3-yl]carbonyl}-3,8-diazabicyclo[4.2.0]octane] has a Ki (human orexin 1 receptor) of 8200 nM and a Ki (human orexin-2 receptor) of 234 nM.
`Cc1cc(C)nc(N2C[C@@H]3CCN(C(=O)c4ccccc4-c4cccs4)C[C@@H]32)n1` [Example 1, (1R,6S)[8-(4,6-Dimethyl-pyrimidin-2-yl)-3,8-diaza-bicyclo[4.2.0]oct-3-yl]-(2-thiophen-2-yl-phenyl)-methanone] was tested, and the Ki (human orexin 1 receptor) was 64 nM and the Ki (human orexin-2 receptor) was 4 nM.
For `Cc1cccc(N2C[C@@H]3CCN(C(=O)c4c(F)cccc4-n4nccn4)C[C@@H]32)n1` [Example 124, (1R,6S)-3-{[2-Fluoro-6-(2H-1,2,3-triazol-2-yl)phenyl]carbonyl}-8-(6-methylpyridin-2-yl)-3,8-diazabicyclo[4.2.0]octane], the Ki (human orexin 1 receptor) was 4150 nM and the Ki (human orexin-2 receptor) was 92 nM.
Work on `O=C(c1cc(F)ccc1-c1ncccn1)N1CC[C@H]2CN(c3cnc4ccccc4n3)[C@H]2C1` [Example 33, (1R,6S)(5-Fluoro-2-pyrimidin-2-yl-phenyl)-(8-quinoxalin-2-yl-3,8-diaza-bicyclo[4.2.0]oct-3-yl)-methanone] yielded a Ki (human orexin-2 receptor) of 51 nM.
In the case of `Cc1cc(N2C[C@@H]3CCN(C(=O)c4ccc(F)cc4-n4nccn4)C[C@@H]32)nc(N(C)C)n1` [Example 45, (1R,6S)-[8-(2-Dimethylamino-6-methyl-pyrimidin-4-yl)-3,8-diaza-bicyclo[4.2.0]oct-3-yl]-(4-fluoro-2-[1,2,3]triazol-2-yl-phenyl)-methanone], the Ki (human orexin 1 receptor) is reported as 697 nM.
Work on `O=C(c1ccccc1-c1cccs1)N1CC[C@H]2CN(c3cnc4ccccc4n3)[C@H]2C1` [Example 4, (1R,6S)(8-Quinoxalin-2-yl-3,8-diaza-bicyclo[4.2.0]oct-3-yl)-(2-thiophen-2-yl-phenyl)-methanone] yielded a Ki (human orexin-2 receptor) of 7 nM.
With `Cc1cc(N2C[C@@H]3CCN(C(=O)c4cc(F)ccc4-n4nccn4)C[C@@H]32)nc(C(F)(F)F)n1` [Example 42, (1R,6S)-(5-Fluoro-2-[1,2,3]triazol-2-yl-phenyl)-[8-(6-methyl-2-trifluoromethyl-pyrimidin-4-yl)-3,8-diaza-bicyclo[4.2.0]oct-3-yl]-methanone] the Ki (human orexin-2 receptor) was 34 nM.
Compound `CCOc1ccc2ccccc2c1C(=O)N1CC[C@H]2CN(c3nc(C)cc(C)n3)[C@H]2C1` [Example 24, (1R,6S)[8-(4,6-Dimethyl-pyrimidin-2-yl)-3,8-diaza-bicyclo[4.2.0]oct-3-yl]-(2-ethoxy-naphthalen-1-yl)-methanone] has a Ki (human orexin-2 receptor) of 6 nM.
In the case of `Cc1nccnc1N1C[C@@H]2CCN(C(=O)c3cc(F)ccc3-n3nccn3)C[C@@H]21` [Example 107, (1R,6S)-3-{[5-Fluoro-2-(2H-1,2,3-triazol-2-yl)phenyl]carbonyl}-8-(3-methylpyrazin-2-yl)-3,8-diazabicyclo[4.2.0]octane], the Ki (human orexin 1 receptor) is reported as 10000 nM.
`Cc1cc(C)nc(N2C[C@@H]3CCN(C(=O)c4cc(F)ccc4-n4nccn4)C[C@@H]32)n1` [Example 41, (1R,6S)-[8-(4,6-Dimethyl-pyrimidin-2-yl)-3,8-diaza-bicyclo[4.2.0]oct-3-yl]-(5-fluoro-2-[1,2,3]triazol-2-yl-phenyl)-methanone] was tested, and the Ki (human orexin 1 receptor) was 441 nM.
Work on `COc1cnc(C)nc1C(=O)N1CC[C@H]2CN(c3nc(C)cc(C)n3)[C@H]2C1` [Example 136, (1R,6S)-8-(4,6-Dimethylpyrimidin-2-yl)-3-[(5-methoxy-2-methylpyrimidin-4-yl)carbonyl]-3,8-diazabicyclo[4.2.0]octane] yielded a Ki (human orexin 1 receptor) of 10000 nM.
Work on `Cc1cc(C)nc(N2C[C@@H]3CCN(C(=O)c4ccccc4-c4ncn[nH]4)C[C@@H]32)n1` [Example 172, (1R,6S)-8-(4,6-Dimethylpyrimidin-2-yl)-3-{[2-(1H-1,2,4-triazol-5-yl)phenyl]carbonyl}-3,8-diazabicyclo[4.2.0]octane] yielded a Ki (human orexin-2 receptor) of 48 nM.
`Cc1nccnc1N1C[C@@H]2CCN(C(=O)c3cccc(F)c3-n3nccn3)C[C@@H]21` [Example 109, (1R,6S)-3-{[3-Fluoro-2-(2H-1,2,3-triazol-2-yl)phenyl]carbonyl}-8-(3-methylpyrazin-2-yl)-3,8-diazabicyclo[4.2.0]octane] was tested, and the Ki (human orexin-2 receptor) was 10000 nM.
In the case of `Cc1cc(C)nc(N2C[C@@H]3CCN(C(=O)c4ccccc4-n4nccn4)C[C@@H]32)n1` [Example 25, (1R,6S)-[8-(4,6-Dimethyl-pyrimidin-2-yl)-3,8-diaza-bicyclo[4.2.0]oct-3-yl]-(2-[1,2,3]triazol-2-yl-phenyl)-methanone], the Ki (human orexin 1 receptor) is reported as 416 nM.
`Cc1cc(C)nc(N2C[C@@H]3CCN(C(=O)c4ccccc4-c4ccco4)C[C@@H]32)n1` [Example 2, (1R,6S)[8-(4,6-Dimethyl-pyrimidin-2-yl)-3,8-diaza-bicyclo[4.2.0]oct-3-yl]-(2-furan-2-yl-phenyl)-methanone] gave a Ki (human orexin-2 receptor) of 4 nM.
